The subject of experiment [1] is Mus musculus. Description: ED50 value by rotarod test on mice at different dosage levels upon subcutaneous administration. Type of experiment: functional. To be noted: sc.
Experiment [2] concerns the target T1, Glutamate receptor ionotropic, NMDA 1 (Rattus norvegicus, UniProt P35439). Description: Binding affinity by displacement of [3H]TCP from PCP N-methyl-D-aspartate glutamate receptor of tissue homogenate preparation of rat brain without cerebellum. It is filed as tissue-based. Background: In a radioligand displacement assay an active substance lowers the binding of a labelled ligand.

In experiment [3] the test system is Mus musculus. Description: Effective dose after subcutaneous administration using rotarod test in mice. Type of experiment: functional. For orientation: In the rotarod test animals must keep their balance on a rotating rod.
Experiment [4] concerns the target T1, Glutamate receptor ionotropic, NMDA 1. Kind of experiment: Binding affinity by displacement of [3H]TCP from PCP N-methyl-D-aspartate glutamate receptor of tissue homogenate preparation of rat brain without cerebellum (in vitro). It is filed as tissue-based.

In ChEMBL document CHEMBL1125191, “Synthesis, stereochemistry, and biological activity of the 1-(1-phenyl-2-methylcyclohexyl)piperidines and the 1-(1-phenyl-4-methylcyclohexyl)piperidines. Absolute configuration of the potent trans-(-)-1-(1-phenyl-2-methylcyclohexyl)piperidine” (J Med Chem, 1991) one finds ED50 and Ki data, which are given here for twelve compounds.

pKi: −log10 of the molar value.

The term ED50 denotes the dose at which the effect has come halfway, by size or by number of responders. As usually defined, the pKi is −log10 of the Ki, conventionally taken in molar units. A higher pKi goes with a low Ki. `N=C(c1ccccc1)C1(N2CCCCC2)CCCCC1`: the ED50 in the experiment with Mus musculus [1] is > 100 mg/kg. In addition, in experiment [2], the pKi was 4.51.
The matching figures for `CC1CCCCC1(C(=N)c1ccccc1)N1CCCCC1` (cis isomer): > 100 mg/kg and 5.33.
On to `CC1CCCCC1(c1ccccc1)N1CCCCC1` (stereo in doubt; 3), for which the ED50 in the experiment on Mus musculus [3] was >150 mg/kg. In addition, the pKi in experiment [4] was 5.13.
The matching figures for `CC1CCCCC1(c1ccccc1)N1CCCCC1` (trans isomer): 3.3 mg/kg and 7.60.
The matching figures for `CC1CCCCC1(c1ccccc1)N1CCCCC1` (stereo in doubt; (-)-2): 1.9 mg/kg and 7.96.
In experiment [2], `CC1CCCCC1(C(=N)c1ccccc1)N1CCCCC1` (trans isomer) gave a pKi of 4.64.
For `c1ccc(C2(N3CCCCC3)CCCCC2)cc1` [PHENCYCLIDINE], the ED50 in the experiment on Mus musculus [3] (Mus musculus, sc, read-out: ED50) worked out at 4 mg/kg. The compound also had a pKi in experiment [4] of 7.28.
In the experiment with Mus musculus [3], `CC1CCC(c2ccccc2)(N2CCCCC2)CC1` (stereo in doubt; 18) registered an ED50 of 5.5 mg/kg. The compound also showed a negative-log Ki (pKi) in experiment [4] of 6.78.
`CC1CCC(c2ccccc2)(N2CCCCC2)CC1` (stereo in doubt; 17): the median effective dose (ED50) with Mus musculus [3] was >150 mg/kg. Also, the negative-log Ki (pKi) in experiment [4] is 6.21.
The compound `CC1CCCCC1(c1ccccc1)N1CCCCC1` (stereo in doubt; (+)-2) came in with an ED50 in the experiment on Mus musculus [3] of 7.5 mg/kg. The same compound showed a pKi in experiment [4] of 7.00.
`CC1CCCCC1(c1ccccc1)N1CCCCC1` (stereo in doubt; (-)-3) gave a negative-log Ki (pKi) in experiment [4] of 5.66.
As for `CC1CCCCC1(c1ccccc1)N1CCCCC1` (stereo in doubt; (+)-3), in the experiment on Mus musculus [3], the ED50 was >100 mg/kg. For the same compound, in experiment [4], the negative-log Ki (pKi) was 5.53.
